Reference: patent US20180073018A1, “COMPOSITIONS AND METHODS FOR SPECIFIC REACTIVATION OF HIV LATENT RESERVOIR” (priority 2015, published 2018)

How the values were obtained:
[1] = system: HIV-1 LTR promoter; experiment: dCas9-VPH/msgRNA (or SAHA) reactivation of latent LTR-eLuc reporter in TZM-bI cells; format: cell-based
Description: Cells were plated in 96-well plate and the indicated MS2-gRNAs were cotransfected by Lipofectamine 3000 (FIG. 3A) or coinfected by lentiviruses (FIG. 3B, MOI=50) with pMSCV-LTR-dCas9-VP64-BFP plus pLV-MS2-p65-HSF1-GFP. Two days later, OneGlo luminescence assay was performed. The SIV MS2-gRNA-D was used as negative control. […] The gRNA-J has no effect due to 2 nucleotides mismatch to the LTR sequence from TZM-bI cells.
FIG. 8A, FIG. 8B, FIG. 8C, and FIG. 8D, depict the results of experiments of screening of MS2-mediated sgRNAs (msgRNAs) targeting the HIV-1 long terminal repeat (LTR) in the dCas9-synergistic activation mediator (SAM) system. FIG. 8A is a schematic illustration of SAM-VPH complex derived from dCas9-VP64 (V) and MS2-p65-HSF1 (PH) with msgRNAs. FIG. 8B is a graph showing similar activation of transfected EcoHIV-eLuc reporter by inducible (TRE) or constitutive (LTR) dCas9-VP64 expression in HEK293T cells. FIG. 8C is a graph showing similar reactivation of latent HIV-LTR-eLuc reporter in TZM-bI cells after either transient plasmid transfection by Lipofectamine 3000 or stable infection by lentivirus. […] The gRNA-J has no effect due to 2 nucleotides mismatch to the LTR sequence from TZM-bI cells. […]
FIG. 9A and FIG. 9B: TZM-bI cells were infected with dCas9-VPH and indicated msgRNA lentiviruses at 1 or 10 MOI and luciferase activity was measured at 2-21 days post-infection (dpi). […]
(§1) FIG. 12A, FIG. 12B, FIG. 12C: The dCas9-VPH stable TZM-bI cells were treated with SAHA or infected with indicated msgRNAs lentivirus for 2-4 d before luminescence reporter assay (FIG. 12A) and CELLTITER-GLO® luminescent cell viability assay (FIG. 12B). […]
Experiments were conducted to compare reactivation of HIV-LTR luciferase reporter in TZM-BI cells induced by gRNA/dCas9-VP64/MS2-p65-HSF1/delivered by either transient plasmid transfection (FIG. 3A) or stable lentivirus infection (FIG. 3B). […] Two days later, OneGlo luminescence assay was performed. […]

[2] = system: HIV-1 LTR promoter; experiment: HIV-1 EGFP reporter reactivation in latent CHME5 microglial cells; format: cell-based; conditions: dCas9-VPH stable CHME5, 500 nM, 4 d
Description: Cells were infected with pMSCV-LTR-dCas9-VP64-puromycin and Lenti-MS2-p65-HSF1-hygromysin, selected for 10 days. The population cells were infected with Lenti-MS2-gRNAs-Zeosin and the fluorescent micrographs were taken at 1 day after infection (FIG. 5B). Cells were continuously cultured for 7 days, and selected with triple antibiotics (puromycin-hygromycin-Zeocin) for 3 days before flow cytometry (FIG. 5C).
FIG. 9A and FIG. 9B: TZM-bI cells were infected with dCas9-VPH and indicated msgRNA lentiviruses at 1 or 10 MOI and luciferase activity was measured at 2-21 days post-infection (dpi). FIG. 9C, FIG. 9D: indicated HIV-1 EGFP reporter T cell lines were infected with dCas9-VPH and indicated msgRNAs lentiviruses at 10 MOI and flow cytometric analysis for EGFP percentage (FIG. 9C) and individual intensity (FIG. 9D) was performed at 1 dpi. […]
as §1
Cells were trypsinized (for CHME5) or collected (for suspension T cell lines), washed with PBS and fixed in 2% paraformaldehyde for 10 minutes at room temperature. Then, cells were washed twice with PBS and analyzed using a Guava EasyCyte Mini flow cytometer (Guava Technologies). […]

O=C(CCCCCCC(=O)Nc1ccccc1)NO [SAHA, suberoylanilide hydroxamic acid]
activation of LTR-eLuc reporter ([1]; TZM-bI, 500 nM): did not activate | reactivation of LTR-eLuc reporter ([1]; TZM-bI, 5,000 nM): 4 fold | HIV-1 provirus reactivation (EGFP) [2]: marginal increase
